For one series, the target named is T1, HBV capsid (Hepatitis B virus genotype D subtype ayw, UniProt P03146).
T1 construct: expressed in transfected cells; host or cells: HepG2.2.15
As to the kind of experiment: Mechanistic study in stably HBV expressed HepG2.2.15 cells (capsid, encapsidated DNA/RNA, core protein blots). Particulars: HepG2.2.15, 6 days; for HBV capsid (formation of DNA- and RNA-devoid capsid): various concentrations; for Intracellular HBV core protein level: western blot. It is filed as cell-based. As to the method: The stably HBV expressed HepG2.2.15 cells were treated with test compounds, at various concentrations in culture medium, at 37° C. for three days. After that the medium was removed and fresh medium containing the compound was added to the cells for another 3 days. After 6 days of treatment, cellular lysates from the treated cells were assessed by non-denatured agarose gel electrophoresis. HBV capsid was detected by western blot with monoclonal anti-HBV core. Encapsidated HBV DNA and RNA were detected by southern blot and northern blot. Intracellular HBV core protein was assessed by western Blot with a monoclonal mouse anti-HBV core. β-actin protein assessed by western blot was used as an internal control.

Series [1] is described as follows: Cytotoxicity (MTT) in HepG2.2.15 cells. It counts as cell-based. Particulars: human, 6 days treatment, read-out: HepG2.1.15 cytotoxicity (CC50). The protocol: HepG2.2.15 cells were seeded onto 96-well culture plate and allowed to adhere for 24 hours. The cells were treated with various concentrations of the compounds for 6 days. After treatment, the culture media were discarded and further incubated with serum-free media containing […] of 3-(4,5-dimethylthiazol-2-yl)-2,5-diphenyl tetrazolium bromide (MTT) for 2 hour. The resulting formazan crystals were completely dissolved in dimethyl sulfoxide (DMSO), and then measured absorbance at 570 nm using microplate reader. The concentrations of compounds producing 50% cell death (CC50) were determined from a fitting of concentration-response curve (% cell viability versus concentration) to a four-parameter equation.

For the next series, the system named is HBV genotype D. As to the kind of experiment: HBV-infected primary human hepatocytes (PHH). It is filed as cell-based, Hepatitis B virus. Conditions: for cccDNA establishment in PHH: treatment scheme 1, southern blot. The protocol:
Primary human hepatocytes (PHH) were infected with HBV genotype D produced from HepG2.2.15 cell line on day 1 after plating. Subsequently, the PHH were treated with various concentrations of compounds into 2 different treatment schemes. For treatment scheme 1, the compounds were added into PHH simultaneously with infection media, and incubated for additional 6 days. For treatment scheme 2, the compounds were added into PHH at day 3 after infection, and further incubated for 6 days. After treatment, the cell culture supernatants were collected for the determinations of HBV DNA by qPCR, pgRNA by RT-PCR, HBsAg and HBeAg by ELISA, and cell viability by CCK-8. The cells were harvested for detection of intracellular cccDNA by southern blot.

Series [2] deals with T2, HBV core protein (Cp149) (Hepatitis B virus genotype D subtype ayw, UniProt P03146).
T2 construct: HBV core C-terminally truncated protein (HBV Cp149); made in house
As to the kind of experiment: HBV capsid assembly by electron microscopy (EM). It counts as biochemical. Particulars: 50 μM compound, 15 μM Cp149, negative stain.

Series [3] concerns HBV. As to the kind of experiment: Effect on intrahepatic HBV DNA levels in HepG2.2.15 cells (EC50). It counts as cell-based. Particulars: Hepatitis B virus, 144 h, 6 days, intrahepatic HBV DNA by qPCR, read-out: Anti-HBV DNA (EC50). The protocol:
HepG2.2.15 cells were treated with compounds, at various concentrations in 10% FCS containing medium, at 37° C. for three days. After that the medium was removed and fresh medium containing the compound was added to the cells for another 3 days. After 6 days of treatment, intrahepatic HBV DNA from cell lysates were isolated. Then qPCR reaction of DNA was performed to measure total HBV DNA levels using specific primer set. The fifty-percent effective concentrations (EC50) for HBV DNA inhibition, relative to no drug controls, was determined using nonlinear fitting curve model. EC50 ranges for HBV DNA inhibition were as follows: A>0.3 μM, B=0.05-0.3 μM, C<0.05 μM (Table B).

Series [4] relates to HBV. As to the kind of experiment: In vitro anti-HBV activity in HepG2.2.15 cell line (intracellular HBV DNA by qPCR at 1 μM). It counts as cell-based. Particulars: Hepatitis B virus, 144 h; HepG2.2.15 cells, 1 μM compound, 6 days, intracellular HBV DNA as percentage compared to vehicle control (0.5% DMSO). In a few lines:
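Intracellular HBV DNA was quantified by qPCR and given as percent of vehicle (0.5% DMSO), grouped into letter ranges. Stably transfected HepG2.2.15 cells had 6 days of exposure to 1 μM compound, with medium and compound renewed after day 3.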

In series [5] the target is T2, HBV core protein (Cp149). As to the kind of experiment: HBV capsid assembly by size exclusion chromatography (SEC). It counts as biochemical. Conditions: 50 μM compound, 15 μM Cp149, 16 hours at 21° C.
Series [6] in a line: Pharmacokinetic study in dogs. It counts as in vivo, male Beagle dogs. Particulars: for F (%) Dog: PO 0.3 to 2.0 mg/kg; for half-life / clearance / Vd: male, Beagle, dog, plasma; for half-life: read-out: t1/2 (h) Dog (converted); for clearance / Vd: IV 0.2 to 0.5 mg/kg; for clearance: read-out: CL (mL/min/kg) Dog; for Vd: read-out: Vd,ss (L/kg) Dog. The protocol: (§1) Test compounds were administered to male Sprague-Dawley rats and male Beagle dogs by oral (PO) and intravenous (TV) administration. For TV dosing, test compounds were dosed at 0.2 to 0.5 mg/kg using a formulation of 10% dimethyl sulfoxide in 20% hydroxypropyl beta-cyclodextrin solution via IV bolus. For PO dosing, test compounds were dosed at 0.3 to 2.0 mg/kg using a formulation of 40% polyethylene glycol 400 in water via oral gavage. Blood samples were collected at pre-dose and various time points up to 24 hours post-dose, and centrifuged to obtain plasma samples. The plasma concentrations of test compounds were quantified by LC-MS/MS methods. The relevant pharmacokinetic parameters (Table D) were calculated via non-compartmental analysis using WinNonlin (Phoenix™, version 8.3).

A short description of series [7]: Pharmacokinetic study in rats. It is filed as in vivo, male Sprague-Dawley rats. Particulars: for F (%) Rat: PO 0.3 to 2.0 mg/kg; for Vd: read-out: Vd,ss (L/kg) Rat; for half-life: read-out: t1/2 (h) Rat (converted). The protocol: as §1
Setting [8] is: male, Sprague-Dawley, plasma, rat, IV 0.2 to 0.5 mg/kg.
The mark [9] stands for this setting: male, Sprague-Dawley, rat, plasma.

T1 sequence (P03146 whole entry): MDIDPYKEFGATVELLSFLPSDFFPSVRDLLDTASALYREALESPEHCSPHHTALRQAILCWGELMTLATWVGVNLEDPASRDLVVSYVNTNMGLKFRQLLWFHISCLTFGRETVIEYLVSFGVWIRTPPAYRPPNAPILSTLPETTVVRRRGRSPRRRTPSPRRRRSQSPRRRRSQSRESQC
T2 sequence (P03146 1-149): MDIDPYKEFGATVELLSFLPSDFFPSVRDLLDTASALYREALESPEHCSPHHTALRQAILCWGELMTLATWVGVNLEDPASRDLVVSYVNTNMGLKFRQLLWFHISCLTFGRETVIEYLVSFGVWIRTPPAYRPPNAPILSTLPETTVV

Take `C[C@H]1[C@@H](C(=O)Nc2cc(F)c(F)c(F)c2)CCN1C(=O)c1[nH]c2ccccc2c1Cl` [Example 42, (2S,3S)-1-(3-chloro-1H-indole-2-carbonyl)-2-methyl-N-(3,4,5-trifluorophenyl)pyrrolidine-3-carboxamide]: at HBV capsid, the “HBV capsid (formation of DNA- and RNA-devoid capsid)” value (“HBV capsid” for short) is “dose-dependently accelerated formation of DNA- and RNA-devoid capsid”; the “Intracellular HBV core protein level” value was “had no effect on intracellular HBV core protein level”. In addition, the CC50 at 6 days in [1] is more than 25 µM. Also, in the series on HBV genotype D (treatment scheme 1), the “HBeAg in PHH” value is listed as “inhibited” and the “HBsAg in PHH” value was “inhibited”. Besides, in the series on HBV genotype D (treatment scheme 1 (compound added simultaneously with infection media, 6 days)), the “HBV DNA in PHH” value was “inhibited”. For the same compound, in the series on HBV genotype D, the “cccDNA establishment in PHH” value is “inhibited”. Besides, the “Capsid morphology by EM” value at HBV core protein (Cp149) [2] is given as “resulted in larger but normal shape spheres”. The concentration for a half-maximal effect (EC50) in the series with HBV [3] lay within 0.05 to 0.3 µM. The compound also came in with an activity at 1 µM with HBV [4] of less than 45%. For the same compound, the “Size of induced capsids based on SEC retention times” value (shortened to “Size of induced capsids based”) on HBV core protein (Cp149) [5] was “capsid retention times between BAY 41-4109 and NVR 3-778”.
As for `Cc1ncnc(C)c1-c1ccc(C(=O)N2CC[C@H](C(=O)Nc3ccc(F)c(Cl)c3)[C@@H]2C)[nH]1` [Example 104, (2S,3S)—N-(3-chloro-4-fluorophenyl)-1-(5-(4,6-dimethylpyrimidin-5-yl)-1H-pyrrole-2-carbonyl)-2-methylpyrrolidine-3-carboxamide], in series [6], the “F (%) Dog” value worked out at 53%, the half-life was 14.2 h, the clearance is 1.5 mL/min/kg and the Vd was determined as 1.67 L/kg. Moreover, the “CL (mL/min/kg) Rat” value in [7] (IV 0.2 to 0.5 mg/kg) is recorded as 12.3 mL/min/kg. The “F (%) Rat” value in [7] amounted to 66%. Besides, in [7] (setting [8]), the Vd was 1.93 L/kg. The half-life in series [7] (setting [9]) is 1.9 h. Besides, at HBV capsid, the “HBV capsid” value was “dose-dependently accelerated formation of DNA- and RNA-devoid capsid”; the “Intracellular HBV core protein level” value is recorded as “had no effect on intracellular HBV core protein level”. Besides, the CC50 at 6 days in series [1] fell in the range of 10 to 25 µM. Also, at HBV core protein (Cp149) [2], the “Capsid morphology by EM” value was “showed similar results as for NVR 3-778”. In the series with HBV [3], the half-maximal effective concentration (EC50) was less than 0.05 µM. Also, the activity at 1 µM with HBV [4] is less than 45%. Also, the “Size of induced capsids based” value on HBV core protein (Cp149) [5] was “induced capsids similar in size to NVR 3-778”.
In the case of `COC(=O)C1=C(C)NC(c2ncc(F)cc2F)=N[C@H]1c1ccc(F)cc1Cl` [BAY 41-4109, reference compound], the “Capsid morphology by EM” value at HBV core protein (Cp149) [2] was “the capsids appeared larger and misassembled with an irregular shape”. Also, at HBV core protein (Cp149) [5], the “Formation of capsids (SEC)” value is recorded as “increased the formation of capsids” and the “Size of induced capsids based” value is “larger in size, as compared to NVR 3-778”.
Regarding `C[C@H]1[C@@H](C(=O)Nc2cc(F)c(F)c(F)c2)CCN1C(=O)c1ccc(-c2ccnnc2)[nH]1` [Example 83, (2S,3S)-2-methyl-1-(5-(pyridazin-4-yl)-1H-pyrrole-2-carbonyl)-N-(3,4,5-trifluorophenyl)pyrrolidine-3-carboxamide], the “F (%) Rat” value in series [7] was 82%. Also, in series [7] (male, Sprague-Dawley, plasma, rat, IV 0.2 to 0.5 mg/kg, read-out: CL (mL/min/kg) Rat), the clearance is 0.3 mL/min/kg. Moreover, the Vd in series [7] (setting [8]) was 0.13 L/kg. The half-life in series [7] (setting [9]) is 5.5 h. For the same compound, the 50% cytotoxic concentration (CC50) at 6 days in series [1] is more than 25 µM. The EC50 in the series on HBV [3] is less than 0.05 µM. Moreover, the activity at 1 µM with HBV [4] is less than 45%. For the same compound, at HBV core protein (Cp149) [5], the “Size of induced capsids based” value is listed as “induced capsids similar in size to NVR 3-778”.
With `Cc1ncnc(C)c1-c1ccc(C(=O)N2CC[C@H](C(=O)Nc3cc(F)c(F)c(F)c3)C2)[nH]1` [Example 85, (S)-1-(5-(4,6-dimethylpyrimidin-5-yl)-1H-pyrrole-2-carbonyl)-N-(3,4,5-trifluorophenyl) pyrrolidine-3-carboxamide], in series [6], the “F (%) Dog” value was approximately 100%, the half-life was 6.2 h, the clearance stood at 4.4 mL/min/kg and the Vd amounted to 1.64 L/kg. The “CL (mL/min/kg) Rat” value in series [7] (IV 0.2 to 0.5 mg/kg) amounted to 15.2 mL/min/kg. In addition, the Vd in series [7] (setting [8]) was found to be 2.88 L/kg. In series [7] (setting [9]), the half-life is 3.6 h. Besides, the 50% cytotoxic concentration (CC50) at 6 days in [1] lay within 10 to 25 µM. Moreover, the EC50 in the series on HBV [3] is less than 0.05 µM. This compound displayed an activity at 1 µM in the series on HBV [4] of less than 45%. Besides, at HBV core protein (Cp149) [5], the “Size of induced capsids based” value was “induced capsids similar in size to NVR 3-778”.
For `C=C1[C@H](CO)[C@@H](O)C[C@@H]1n1cnc2c(=O)[nH]c(N)nc21` [Entecavir, entecavir, reference compound], at HBV capsid, the “HBV capsid” value is “had no effects”; the “Intracellular HBV core protein level” value is given as “had no effects”. For the same compound, in the series on HBV genotype D, the “cccDNA establishment in PHH” value is “had no effect on cccDNA establishment”.
